Test results from patent US10550105B2 (Ribon Therapeutics Inc., priority 2018, dated 2020).

Molecular target: PARP7 (Homo sapiens (Human), UniProt Q7Z3E1)
Experiment: Enzymatic assay for inhibition of PARP7: TR-FRET displacement of biotinylated Probe A from the TIPARP active site
Assay type: binding
Conditions: Table A-1
Procedure, shortened: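 Percent inhibition derives from the ratio of 665 to 615 nm emission, which reports how much Probe A remains bound to TIPARP. Plates sat 30 min at 25° C before the time-resolved read (320 nm excitation).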

Chain of PARP7 (Q7Z3E1 whole entry): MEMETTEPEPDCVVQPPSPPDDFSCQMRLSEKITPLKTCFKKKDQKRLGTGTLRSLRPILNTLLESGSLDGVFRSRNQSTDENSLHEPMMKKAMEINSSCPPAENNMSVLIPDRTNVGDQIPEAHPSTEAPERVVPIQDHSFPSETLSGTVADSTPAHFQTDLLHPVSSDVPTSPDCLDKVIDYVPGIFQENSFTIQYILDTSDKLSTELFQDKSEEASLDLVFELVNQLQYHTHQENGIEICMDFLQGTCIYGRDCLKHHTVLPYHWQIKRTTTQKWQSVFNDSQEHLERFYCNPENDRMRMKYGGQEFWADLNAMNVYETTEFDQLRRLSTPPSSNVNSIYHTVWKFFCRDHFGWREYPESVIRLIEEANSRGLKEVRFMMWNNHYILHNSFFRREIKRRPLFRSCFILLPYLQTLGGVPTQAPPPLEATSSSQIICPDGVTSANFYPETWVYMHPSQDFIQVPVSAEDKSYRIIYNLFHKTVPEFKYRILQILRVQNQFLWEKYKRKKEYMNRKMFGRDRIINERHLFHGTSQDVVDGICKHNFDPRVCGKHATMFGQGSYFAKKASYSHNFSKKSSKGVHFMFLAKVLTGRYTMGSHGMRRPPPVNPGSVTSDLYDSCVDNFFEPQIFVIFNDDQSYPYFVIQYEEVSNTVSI

Row | Compound | IC50 [nM]
1 | O=C(CCNC[C@@H]1c2ccccc2CN1c1cn[nH]c(=O)c1C(F)(F)F)N1CCN(c2ncc(Cl)cn2)CC1 [Example 627, (S)-5-(1-(((3-(4-(5-Chloropyrimidin-2-yl)piperazin-1-yl)-3-oxopropyl)amino)methyl)isoindolin-2-yl)-4-(trifluoromethyl)pyridazin-3(2H)-one] | < 100
2 | O=C(CCNC[C@H]1c2ccccc2CN1c1cn[nH]c(=O)c1C(F)(F)F)N1CCN(c2ncc(Cl)cn2)CC1 [Example 628, (R)-5-(1-(((3-(4-(5-Chloropyrimidin-2-yl)piperazin-1-yl)-3-oxopropyl)amino)methyl)isoindolin-2-yl)-4-(trifluoromethyl)pyridazin-3(2H)-one] | ≥ 1000
3 | O=C(CCNC[C@@H]1c2ccccc2CN1c1cn[nH]c(=O)c1C(F)(F)F)N1CCN(c2ccc(C(F)(F)F)cn2)CC1 [Example 629, (S)-5-(1-(((3-Oxo-3-(4-(5-(trifluoromethyl)pyridin-2-yl)piperazin-1-yl)propyl)amino)methyl)isoindolin-2-yl)-4-(trifluoromethyl)pyridazin-3(2H)-one] | < 100
4 | O=C(CCNC[C@H]1c2ccccc2CN1c1cn[nH]c(=O)c1C(F)(F)F)N1CCN(c2ccc(C(F)(F)F)cn2)CC1 [Example 630, (R)-5-(1-(((3-Oxo-3-(4-(5-(trifluoromethyl)pyridin-2-yl)piperazin-1-yl)propyl)amino)methyl)isoindolin-2-yl)-4-(trifluoromethyl)pyridazin-3(2H)-one] | ≥ 1000
5 | O=C(CCOC[C@H](CO)Nc1cn[nH]c(=O)c1C(F)(F)F)N1CCN(c2ccc(Cl)cn2)CC1 [Example 633, (S)-5-((1-(3-(4-(5-Chloropyridin-2-yl)piperazin-1-yl)-3-oxopropoxy)-3-hydroxypropan-2-yl)amino)-4-(trifluoromethyl)pyridazin-3(2H)-one] | < 100
6 | C[C@@H](COCCCC(=O)N1CCN(c2ncc(C(F)(F)F)cn2)CC1)Nc1cn[nH]c(=O)c1C(F)(F)F [Example 634, (S)-5-((1-(4-Oxo-4-(4-(5-(trifluoromethyl)pyrimidin-2-yl)piperazin-1-yl)butoxy)propan-2-yl)amino)-4-(trifluoromethyl)pyridazin-3(2H)-one] | < 100
7 | C[C@H](O)[C@@H](COCCC(=O)N1CCN(c2ncc(C(F)(F)F)cn2)CC1)Nc1cn[nH]c(=O)c1C(F)(F)F [Example 635, 5-(((2R,3S)-3-Hydroxy-1-(3-oxo-3-(4-(5-(trifluoromethyl)pyrimidin-2-yl)piperazin-1-yl)propoxy)butan-2-yl)amino)-4-(trifluoromethyl)pyridazin-3(2H)-one] | < 100
8 | C[C@@H](COCCC(=O)N1CCN(c2ncc(C(F)(F)F)cn2)CC1)N(C)c1cn[nH]c(=O)c1Cl [Example 636, (S)-4-Chloro-5-(methyl(1-(3-oxo-3-(4-(5-(trifluoromethyl)pyrimidin-2-yl)piperazin-1-yl)propoxy)propan-2-yl)amino)pyridazin-3(2H)-one] | 100 to 1000
9 | O=C(CCOC[C@H](Cc1cccnc1)Nc1cn[nH]c(=O)c1C(F)(F)F)N1CCN(c2ncc(C(F)(F)F)cn2)CC1 [Example 637, (S)-5-((1-(3-Oxo-3-(4-(5-(trifluoromethyl)pyrimidin-2-yl)piperazin-1-yl)propoxy)-3-(pyridin-3-yl)propan-2-yl)amino)-4-(trifluoromethyl)pyridazin-3(2H)-one] | < 100
10 | N#Cc1ccc(N2CCN(C(=O)C[C@H]3CC[C@H](COc4cn[nH]c(=O)c4C(F)(F)F)N3)CC2)nc1 [Example 638, 6-(4-(2-((2R,5R)-5-(((6-Oxo-5-(trifluoromethyl)-1,6-dihydropyridazin-4-yl)oxy)methyl)pyrrolidin-2-yl)acetyl)piperazin-1-yl)nicotinonitrile] | 100 to 1000
11 | N#Cc1ccc(N2CCN(C(=O)C[C@@H]3CC[C@@H](COc4cn[nH]c(=O)c4C(F)(F)F)N3)CC2)nc1 [Example 639, 6-(4-(2-((2S,5S)-5-(((6-Oxo-5-(trifluoromethyl)-1,6-dihydropyridazin-4-yl)oxy)methyl)pyrrolidin-2-yl)acetyl)piprazin-1-yl)nicotinonitrile] | ≥ 1000
12 | C[C@@H](CCOCCC(=O)N1CCN(c2ncc(C(F)(F)F)cn2)CC1)Nc1cn[nH]c(=O)c1C(F)(F)F [Example 640, (S)-5-((4-(3-Oxo-3-(4-(5-(trifluoromethyl)pyrimidin-2-yl)piperazin-1-yl)propoxy)butan-2-yl)amino)-4-(trifluoromethyl)pyridazin-3(2H)-one] | < 100
13 | C[C@@H](COCCC(=O)N1CCN(c2ncc(C(F)(F)F)cn2)CC1)N(C)c1cn[nH]c(=O)c1C(F)(F)F [Example 641, (S)-5-(Methyl(1-(3-oxo-3-(4-(5-(trifluoromethyl)pyrimidin-2-yl)piperazin-1-yl)propoxy)propan-2-yl)amino)-4-(trifluoromethyl)pyridazin-3(2H)-one] | 100 to 1000
14 | O=C(CC1CCC(COc2cn[nH]c(=O)c2C(F)(F)F)N1)N1CCN(c2ncc(C(F)(F)F)cn2)CC1 (stereo not drawn) [Example 642, 5-((5-(2-Oxo-2-(4-(5-(trifluoromethyl)pyrimidin-2-yl)piperazin-1-yl)ethyl)pyrrolidin-2-yl)methoxy)-4-(trifluoromethyl)pyridazin-3(2H)-one] | 100 to 1000
15 | O=C(CCOC[C@H](CCO)Nc1cn[nH]c(=O)c1C(F)(F)F)N1CCN(c2ncc(C(F)(F)F)cn2)CC1 [Example 643, (S)-5-((4-Hydroxy-1-(3-oxo-3-(4-(5-(trifluoromethyl)pyrimidin-2-yl)piperazin-1-yl)propoxy)butan-2-yl)amino)-4-(trifluoromethyl)pyridazin-3(2H)-one] | < 100
16 | C[C@@H](COCCC(=O)N1CCN(c2cnc(Cl)cn2)CC1)Nc1cn[nH]c(=O)c1C(F)(F)F [Example 644, (S)-5-((1-(3-(4-(5-Chloropyrazin-2-yl)piperazin-1-yl)-3-oxopropoxy)propan-2-yl)amino)-4-(trifluoromethyl)pyridazin-3(2H)-one] | < 100
17 | C[C@@H](CN(C)CCC(=O)N1CCN(c2ccc(C#N)cn2)CC1)Oc1cn[nH]c(=O)c1C(F)(F)F [Example 645, (S)-6-(4-(3-(Methyl(2-((6-oxo-5-(trifluoromethyl)-1,6-dihydropyridazin-4-yl)oxy)propyl)amino)propanoyl)piperazin-1-yl)nicotinonitrile] | < 100
18 | C[C@@H](COCCC(=O)N1CC=C(c2ccc(C#N)cn2)CC1)Oc1cn[nH]c(=O)c1C(F)(F)F [Example 646, (S)-1′-(3-(2-((6-Oxo-5-(trifluoromethyl)-1,6-dihydropyridazin-4-yl)oxy)propoxy)propanoyl)-1′,2′,3′,6′-tetrahydro-[2,4′-bipyridine]-5-carbonitrile] | < 100
19 | O=C(CCOC[C@H](Cc1ccncc1)Nc1cn[nH]c(=O)c1C(F)(F)F)N1CCN(c2ncc(C(F)(F)F)cn2)CC1 [Example 647, (S)-5-((1-(3-Oxo-3-(4-(5-(trifluoromethyl)pyrimidin-2-yl)piperazin-1-yl)propoxy)-3-(pyridin-4-yl)propan-2-yl)amino)-4-(trifluoromethyl)pyridazin-3(2H)-one] | < 100
20 | O=C(CCOC[C@H](CC1CCNCC1)Nc1cn[nH]c(=O)c1C(F)(F)F)N1CCN(c2ncc(C(F)(F)F)cn2)CC1 [Example 648, (S)-5-((1-(3-Oxo-3-(4-(5-(trifluoromethyl)pyrimidin-2-yl)piperazin-1-yl)propoxy)-3-(piperidin-4-yl)propan-2-yl)amino)-4-(trifluoromethyl)pyridazin-3(2H)-one] | ≥ 1000
21 | O=C(CCOC[C@@H](CC1CCNCC1)Nc1cn[nH]c(=O)c1C(F)(F)F)N1CCN(c2ncc(C(F)(F)F)cn2)CC1 [Example 649, (R)-5-((1-(3-Oxo-3-(4-(5-(trifluoromethyl)pyrimidin-2-yl)piperazin-1-yl)propoxy)-3-(piperidin-4-yl)propan-2-yl)amino)-4-(trifluoromethyl)pyridazin-3(2H)-one] | < 100
22 | C[C@@H](COCCC(=O)N1CCN(c2ccc(C#N)cn2)CC1)Oc1cn[nH]c(=O)c1Br [Example 650, (S)-6-(4-(3-(2-((5-Bromo-6-oxo-1,6-dihydropyridazin-4-yl)oxy)propoxy)propanoyl)piperazin-1-yl)nicotinonitrile] | < 100
23 | COC[C@@H](COCCC(=O)N1CCN(c2ncc(C(F)(F)F)cn2)CC1)Nc1cn[nH]c(=O)c1Cl [Example 651, (S)-4-Chloro-5-((1-methoxy-3-(3-oxo-3-(4-(5-(trifluoromethyl)pyrimidin-2-yl)piperazin-1-yl)propoxy)propan-2-yl)amino)pyridazin-3(2H)-one] | < 100
24 | C[C@@H](COCCC(=O)N1CC=C(c2ncc(C(F)(F)F)cn2)CC1)Nc1cn[nH]c(=O)c1C(F)(F)F [Example 652, (S)-5-((1-(3-Oxo-3-(4-(5-(trifluoromethyl)pyrimidin-2-yl)-3,6-dihydropyridin-1(2H)-yl)propoxy)propan-2-yl)amino)-4-(trifluoromethyl)pyridazin-3(2H)-one] | < 100
25 | O=C(CCOC[C@@H](Nc1cn[nH]c(=O)c1C(F)(F)F)C1CCNCC1)N1CCN(c2ncc(C(F)(F)F)cn2)CC1 [Example 653, (S)-5-((2-(3-Oxo-3-(4-(5-(trifluoromethyl)pyrimidin-2-yl)piperazin-1-yl)propoxy)-1-(piperidin-4-yl)ethyl)amino)-4-(trifluoromethyl)pyridazin-3(2H)-one] | ≥ 1000
26 | C[C@@H](COCCC(=O)N1CCN(c2ccc(C#N)cn2)CC1)Sc1cn[nH]c(=O)c1C(F)(F)F [Example 655, (S)-6-(4-(3-(2-((6-Oxo-5-(trifluoromethyl)-1,6-dihydropyridazin-4-yl)thio)propoxy)propanoyl)piperazin-1-yl)nicotinonitrile] | < 100
27 | C[C@@H](COCCC(=O)N1CCN(c2ccc(CC#N)cn2)CC1)Oc1cn[nH]c(=O)c1C(F)(F)F [Example 656, (S)-2-(6-(4-(3-(2-((6-Oxo-5-(trifluoromethyl)-1,6-dihydropyridazin-4-yl)oxy)propoxy)propanoyl)piperazin-1-yl)pyridin-3-yl)acetonitrile] | < 100
